Entries after “also recorded” stand apart in the source; their conditions may differ.
Assays:
p16 = p16 protein in primary myotubes (Western Blotting); type: cell-based; conditions: 24 hours treatment
oxytocin receptor (OXTR) = assay: OXTR expression in skeletal muscle by real-time qRT PCR; type: in vivo, C57.B6 mice; conditions: old mice, s.c. daily 7 days, compared to control HBSS
Procedure: Old C57.B6 male mice (23-24 mo) per were administered by subcutaneous injections with oxytocin (OXT), Alk5i, a mixture of OXT and Alk5i (OXT+Alk5i) or control in vivo for 7 days, daily. The expression levels of oxytocin receptor (OXTR) were assayed by real-time qRT PCR in skeletal muscle of these mice.
OT and/or A5i or control vehicle (HBSS) was injected subcutaneously to old male C57.B6 mice (23-24 month), daily for 7 days before sacrifice. 3 month C57.B6 male mice identically injected with HBSS were used as young controls
qPCR analysis: Tissue lysates from frozen muscle, liver, and brain embedded in OCT were prepared. 40 slices of 10 μm thick slices were collected and homogenized using QIAShredder (from QIAGEN). Total RNA was extracted with RNeasy Mini Kit (from QIAGEN) according to manufacturer's instructions. Reverse transcription was performed with Superscript III First-Stand Synthesis System (from Invitrogen) according to manufacturer's instructions. For real-time PCR amplification and quantification of gene of interest, 1 ug of total cDNA was used for the initial amplification using specific primers to each gene of interest; amplification was performed with a denaturation step at 95 C for 10 minutes, followed by 40 cycles of denaturation at 95 C for 15 seconds and primer extension at 60 C for 30 s. Real-time PCR was performed using iQ™ SYBR Green Supermix (from Bio-Rad) under CFX Connect Real-Time System (Bio-Rad). Reactions were run in triplicates. Housekeeping gene actin was used as an internal control to normalize the variability in expression levels, and results were analyzed using the 2-ΔΔCT method described (50).

[1] = test system: neural stem cells (Sox-2+) in the subgranular zone of the Dentate Gyrus; assay: Hippocampal neurogenesis in old mice (proliferating Sox-2+ neural stem cells in SGZ); type: in vivo; conditions: old mice with CTX muscle injury, 7 days treatment, vs HBSS control
Procedure: In addition to the cohort that underwent muscle injury, we also performed a study with old mice that were not injured. Young mice administered with control HBSS served as control. […] Hippocampal neurogenesis was assayed in the same mice that were studied for muscle repair above and additionally for mice that were not injured by cardiotoxin. The numbers of proliferating neural stem cells (Sox2+Ki67+) cells per DG of SGZ of hippocampus were quantified in serial brain cryosections. […] NS=non-statistically significant. […] Scale bar=100 microns. […] Data quantification: Muscle regeneration indices were calculated by counting percent de-novo myofibers with central nuclei to total nuclei in multiple images of 10-micron muscle sections for independently treated animals. Muscle fibrosis was quantified by measuring fibrotic areas on Image J. These fibrotic areas were normalized to the area of the image taken at 20× (˜14000 micron^2). Hippocampal neurogenesis (Sox2+/Ki67+, Sox2/BrdU+), p16+SGZ cell numbers and CD45+ cell numbers were quantified by counting the number of respective cells (from multiple 25-35-micron IF brain sections) and for neurogenesis and p16+ cells, extrapolating these numbers to the total thickness of the dentate gyrus. […]

old mice = assay: Four-limb hanging test; type: in vivo; conditions: old mice without muscle injury; for strength (average hang time): 7-day treatment; for learning: percent improvement from first to second hang time: before and after 7-day treatment
Procedure: To assay functional performance, Alk5i alone (low dose), OT alone, Alk5i+OT and control HBSS were dosed to old mice without muscle injury, using young mice injected with HBSS as an additional control. The four-limb hanging test was given to all mice before and after the 7-day treatment. In order to better focus the test on the learning and memory aspects (rather than strength) we examined the percent improvement of each individual animal from the first to the second test session among all studied cohorts.
A four-limb hanging test was conducted with mice before and after treatment by injection of oxytocin (OT), Alk5 inhibitor (A5i) or both, or control HBSS (young and old). The maximal hang time from two trials was considered and the percent change for each animal before and after treatment is shown. A difference is observed between young and all old cohorts (p<0.04) except for the old+Alk5i+OT where there is no statistically significant difference with the young (p=0.5) (test, 1 tail, heteroscedastic).
Four limb hanging test: Muscle strength and endurance were determined by timing how long mice can hang upside down from a wire screen, as published (27). Briefly, each mouse was placed on a 1 cm. mesh, 1 mm wire screen, 30 cm over soft bedding, inverted and timed until the mouse fell. Each animal was given two to three trials with at least a 5-minute rest between trials. Hanging index is expressed as the maximum hang time times the weight of the mouse, with longer times or greater weight for a given time considered better performance.

p21 [2] = conditions: high dose, old mice; cited from earlier work
p21 [3] = conditions: pERK-dependent manner; cited from earlier work
muscle regeneration = conditions: short term subcutaneous injection; cited from earlier work

| Compound | p16 protein levels in primary myotubes (p16) | OXTR expression levels in skeletal muscle (oxytocin receptor (OXTR)) | OXTR levels diminished by (oxytocin receptor (OXTR)) [fold] | hippocampal neurogenesis (Sox2+Ki67+ cells) [1] | strength (average hang time) (old mice) | learning: percent improvement from first to second hang time (old mice) | p21 levels in brain (p21 [2]) | OXTR expression levels in skeletal muscle (oxytocin receptor (OXTR); listed as OXT) | CDKI p21 (p21 [3]) | muscle regeneration in old mice (muscle regeneration) |
| --- | --- | --- | --- | --- | --- | --- | --- | --- | --- | --- |
| 2-(3-(6-Methylpyridin-2-yl)-1H-pyrazol-4-yl)-1,5-naphthyridine [Alk5i] | not either molecule alone | reduced the levels of the oxytocin receptor (OTR) | 2 | failed to enhance the neurogenesis of the old animals | young animals outperformed all old cohorts | did not show improvement | attenuates p21 levels in brain of old mice | – | – | – |
| CC[C@H](C)[C@@H]1NC(=O)[C@H](Cc2ccc(O)cc2)NC(=O)[C@@H](N)CSSC[C@@H](C(=O)N2CCC[C@H]2C(=O)N[C@@H](CC(C)C)C(=O)NCC(N)=O)NC(=O)[C@H](CC(N)=O)NC(=O)[C@H](CCC(N)=O)NC1=O [OT, Oxytocin] | not either molecule alone | – | – | failed to enhance the neurogenesis of the old animals | young animals outperformed all old cohorts | did not show improvement | – | had no effect; also recorded: did not have an effect on OXTR | down-modulate CDKI p21 | able to restore muscle regeneration in old mice |
